The test system of one series is HSV-1. The series is described as follows: Antiviral activity, HSV-1 in Vero cells, plaque method. The conditions noted are these: Human alphaherpesvirus 1, 20 hours, 90% inhibition of plaque formation. The series is classed as cell-based. The procedure, abridged:
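This is a virus-yield read-out. The culture medium was frozen at −80° C and thawed, and the plaques it formed were counted. It came from Vero monolayers infected with 50,000 pfu HSV-1 and then exposed to the compound for 20 h at 37° C. EC90 is the concentration inhibiting 90% of plaque formation relative to the untreated infected control.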

The subject of the next series is Vero cells. In words: Cytotoxicity, Vero cells, Alamar Blue. The format is cell-based. The conditions noted are these: 25 μM, 20 hours. The essentials: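 Living-cell ratio versus untreated control was read by Alamar Blue absorbance after about 6 h of dye incubation. Before that, Vero cells had received 25 μM test compound in 2% FBS-DMEM for 20 hours at 37 °C under 5% CO2.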

The target of another series is T1, HSV-1 protease (Human herpesvirus 1, UniProt P10210).
T1 construct: 6xHis (N); made in house; host or cells: baculovirus expression system
In words: Enzymatic assay for HSV-1 protease (assembly) inhibitor, fluorescence polarization. The format is biochemical. The conditions noted are these: read-out: HSV-1 Enzyme inhibition IC50. The essentials: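 Fluorescence polarization read-out: after avidin stop, cleavage of a biotinylated DTAF-labelled release-site peptide by recombinant N-His6 HSV-1 protease was compared with no-inhibitor wells. Enzyme and compound were preincubated 30 min, then substrate reacted 60 min, all at room temperature, pH 7.4 citrate buffer with TCEP.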

For another series, the system named is HCMV. The series is described as follows: Antiviral activity 2, plaque formation in HEL cells. The series is classed as cell-based, CMV. Conditions: Human betaherpesvirus 5, 336 h, 14 days. The protocol:
(§1) An Assay Method for Antiviral Activity 2
(§2) The HEL cells were sowed on a 48-well plate and then cultured overnight. The culture supernatant was removed, and 100 μl of 2% FBS-DMEM containing 40 Plaque-forming units of HSV-1, HSV-2, VZV, or CMV was added. A viral solution Was removed 1 hour later, and 500 μl of 2% FBS-DMEM containing 0.5% methylcellulose comprising 50, 25, 12.5, 6.3, 3.2, or 1.6 μM of the test compound was added. In this case, a substance to which 2% FBS-DMEM containing 0.5% methylcellulose not comprising any test compound had been added was designated as a control. In the case of HSV-1, HSV-2, or VZV, incubation was carried out in the presence of 5% CO2 at 37° C. for 3 days. In the case of CMV, incubation was carried out under the same conditions for 14 days. After they were immobilized on formalin and stained with bromophenol blue, the amount of plaque formed was counted, and the ratio of plaque formation of the drug-containing reaction system relative to the control was determined. The concentration of the drug with which the ratio of plaque formation reaches 50% was calculated and determined to be IC50. Concerning HSV-1, an aciclovir-resistant thymidine kinase variant and a DNA polymerase variant were examined in addition to a general aciclovir-sensitive strain.

Series [1] concerns HSV1 Thimidine kinase variant. Described as above. The series is classed as cell-based, HSV-1. The conditions noted are these: Human alphaherpesvirus 1, HEL, 72 h, read-out: Antiviral activity: IC50, HSV1 Thimidine kinase variant. The protocol: as §1, §2
In the next series the test system is HSV1 Sensitive strain. Described as above. The series is classed as cell-based, HSV-1. The conditions noted are these: Human alphaherpesvirus 1, 72 h, 3 days. The protocol:
as §1, §2

The test system of series [2] is HSV1 DNA polymerase variant. The description is as above. Conditions: Human alphaherpesvirus 1, HEL, 72 h, read-out: Antiviral activity: IC50, HSV1 DNA polymerase variant. The series is classed as cell-based, HSV-1. The procedure:
as §1, §2

T1 sequence (P10210 1-247): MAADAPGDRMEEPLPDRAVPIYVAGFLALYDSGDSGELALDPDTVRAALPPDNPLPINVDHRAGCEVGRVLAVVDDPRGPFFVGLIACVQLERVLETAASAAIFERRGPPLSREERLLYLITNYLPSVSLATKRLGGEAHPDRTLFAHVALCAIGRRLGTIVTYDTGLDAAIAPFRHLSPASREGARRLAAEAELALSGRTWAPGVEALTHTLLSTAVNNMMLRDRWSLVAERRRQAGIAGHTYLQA

`Cc1c(NC(=O)OC(C)(C)C)ccc2nc(NC(C)(C)C(=O)N(C)CCc3ccccn3)oc(=O)c12` [Compound No.18, (5-methyl-2-{1-methyl-1-[methyl-(2-pyridin-2-yl-ethyl)-carbamoyl]-ethylamino}-4-oxo-4H-benzo[d][1,3]oxazin-6-yl)-carbamic Acid Tert-Butyl Ester] gave an EC90 in the series on HSV-1 of 8.4 µM. For the same compound, the “Cell viability (% of control)” value in the series on Vero cells was 101.0%. Moreover, the half-maximal inhibitory concentration (IC50) amounted to 0.4 µM at HSV-1 protease; 11.1 µM in the series on HCMV; 22.5 µM in series [1]; 10 µM with HSV1 Sensitive strain; 17.1 µM in series [2].

The values above are taken from patent US20040116420A1 (priority 2001, published 2004).
